From patent publication US8143263B2, “Therapeutic agents” (Astrazeneca AB, priority 2008, dated 2012) come the findings set out here.

A word on the EC50: it is the concentration at which the effect is half-maximal.

The test concerns the target T1, recombinant human pancreatic GLK (Homo sapiens, UniProt P35557).
T1 sequence (P35557 1-465): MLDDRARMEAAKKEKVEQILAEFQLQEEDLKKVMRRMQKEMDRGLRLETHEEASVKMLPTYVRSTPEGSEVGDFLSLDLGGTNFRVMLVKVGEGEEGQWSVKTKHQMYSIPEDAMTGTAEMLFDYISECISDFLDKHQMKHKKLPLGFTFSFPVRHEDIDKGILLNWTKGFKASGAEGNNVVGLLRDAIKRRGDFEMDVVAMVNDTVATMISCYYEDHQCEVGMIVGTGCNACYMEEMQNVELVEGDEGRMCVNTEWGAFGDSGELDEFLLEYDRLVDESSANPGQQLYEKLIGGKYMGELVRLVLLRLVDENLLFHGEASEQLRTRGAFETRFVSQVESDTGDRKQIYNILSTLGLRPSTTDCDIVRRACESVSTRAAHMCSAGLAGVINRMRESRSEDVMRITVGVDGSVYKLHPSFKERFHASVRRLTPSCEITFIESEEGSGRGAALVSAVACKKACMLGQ
Nature of the test: biochemical.
With `CCOC[C@H](Oc1ncnc2c1cnn2-c1ncccc1Cl)C(=O)Nc1ccc(C#N)cn1` [Example 127c, (2S)-2-[1-(3-chloro-2-pyridyl)pyrazolo[4,5-e]pyrimidin-4-yl]oxy-N-(5-cyano-2-pyridyl)-3-ethoxy-propanamide], the EC50 is 670 nM. Turning to `CCOC[C@H](Oc1ncnc2c1cnn2-c1ncccc1Cl)C(=O)Nc1ccc(F)cn1` [Example 127d, (2S)-2-[1-(3-chloro-2-pyridyl)pyrazolo[4,5-e]pyrimidin-4-yl]oxy-3-ethoxy-N-(5-fluoro-2-pyridyl)propanamide], the EC50 is 670 nM. Consider `CCOC[C@H](Oc1ncnc2c1cnn2-c1ncccc1Cl)C(=O)Nc1ccccn1` [Example 127e, (2S)-2-[1-(3-chloro-2-pyridyl)pyrazolo[4,5-e]pyrimidin-4-yl]oxy-3-ethoxy-N-(2-pyridyl)propanamide], for which the EC50 is 550 nM.

For the compound `CCOC[C@H](Oc1ncnc2c1cnn2-c1ncccc1Cl)C(=O)Nc1ccncn1` [Example 127f, (2S)-2-[1-(3-chloro-2-pyridyl)pyrazolo[4,5-e]pyrimidin-4-yl]oxy-3-ethoxy-N-pyrimidin-4-yl-propanamide], the EC50 was 1100 nM. Turning to `CCOC[C@H](Oc1ncnc2c1cnn2-c1ncccc1Cl)C(=O)Nc1ccc(Cl)cn1` [Example 127g, (2S)—N-(5-chloro-2-pyridyl)-2-[1-(3-chloro-2-pyridyl)pyrazolo[4,5-e]pyrimidin-4-yl]oxy-3-ethoxy-propanamide], the EC50 was found to be 300 nM. With `CC(C)OC[C@H](Oc1ncnc2c1cnn2-c1ncccc1Cl)C(=O)Nc1nc(C#N)cs1` [Example 127h, (2S)-2-[1-(3-chloro-2-pyridyl)pyrazolo[4,5-e]pyrimidin-4-yl]oxy-N-(4-cyanothiazol-2-yl)-3-isopropoxy-propanamide], the EC50 was determined as 6400 nM. Regarding `CC(C)OC[C@H](Oc1ncnc2c1cnn2-c1ncccc1Cl)C(=O)Nc1ccc(Cl)cn1` [Example 127i, (2S)—N-(5-chloro-2-pyridyl)-2-[1-(3-chloro-2-pyridyl)pyrazolo[4,5-e]pyrimidin-4-yl]oxy-3-isopropoxy-propanamide], the EC50 was found to be 360 nM.

On to `CC(C)OC[C@H](Oc1ncnc2c1cnn2-c1ncccc1Cl)C(=O)Nc1ccc(C#N)cn1` [Example 127j, (2S)-2-[1-(3-chloro-2-pyridyl)pyrazolo[4,5-e]pyrimidin-4-yl]oxy-N-(5-cyano-2-pyridyl)-3-isopropoxy-propanamide], for which the EC50 was 580 nM. As for `CC(C)OC[C@H](Oc1ncnc2c1cnn2-c1ncccc1Cl)C(=O)Nc1ccccn1` [Example 127k, (2S)-2-[1-(3-chloro-2-pyridyl)pyrazolo[4,5-e]pyrimidin-4-yl]oxy-3-isopropoxy-N-(2-pyridyl)propanamide], the EC50 is 560 nM. For `CC(C)OC[C@H](Oc1ncnc2c1cnn2-c1ncccc1Cl)C(=O)Nc1ccc(F)cn1` [Example 127l, (2S)-2-[1-(3-chloro-2-pyridyl)pyrazolo[4,5-e]pyrimidin-4-yl]oxy-N-(5-fluoro-2-pyridyl)-3-isopropoxy-propanamide], the EC50 amounted to 500 nM.

Consider `CCOC[C@H](Oc1ncnc2c1cnn2-c1ccncc1C)C(=O)Nc1ccc(Cl)cn1` [Example 128, (2S)—N-(5-Chloropyridin-2-yl)-3-ethoxy-2-[1-(3-methylpyridin-4-yl)pyrazolo[4,5-e]pyrimidin-4-yl]oxypropanamide], for which the EC50 was 920 nM.

As for `CCOC[C@H](Oc1ncnc2c1cnn2-c1ncccc1C)C(=O)Nc1ccc(Cl)cn1` [Example 128a, (2S)—N-(5-chloropyridin-2-yl)-3-ethoxy-2-(1-(3-methylpyridin-2-yl)-1H-pyrazolo[3,4-d]pyrimidin-4-yloxy)propanamide], the EC50 was 620 nM.

As for `Cc1ccc(NC(=O)[C@H](COC(C)C)Oc2ncnc3c2cnn3-c2ccccc2S(C)(=O)=O)nc1` [Example 129, (2S)-3-isopropoxy-N-(5-methylpyridin-2-yl)-2-(1-(2-(methylsulfonyl)phenyl)-1H-pyrazolo[3,4-d]pyrimidin-4-yloxy)propanamide], the EC50 turned out to be 1300 nM.

In the case of `CCOC[C@H](Oc1ncnc2c1cnn2-c1ccccc1S(C)(=O)=O)C(=O)Nc1ccc(Cl)cn1` [Example 130, (2S)—N-(5-chloropyridin-2-yl)-3-ethoxy-2-(1-(2-(methylsulfonyl)phenyl)-1H-pyrazolo[3,4-d]pyrimidin-4-yloxy)propanamide], the EC50 was 1100 nM. `Cc1ccc(NC(=O)[C@H](CCCO)Oc2ncnc3c2cnn3-c2ncccc2Cl)nc1` [Example 131, (2S)-2-[1-(3-chloropyridin-2-yl)pyrazolo[4,5-e]pyrimidin-4-yl]oxy-5-hydroxy-N-(5-methylpyridin-2-yl)pentanamide]: the EC50 came out at 410 nM. In the case of `CCOC[C@H](Oc1ncnc2c1cnn2-c1ccccc1C(F)(F)F)C(=O)Nc1ccc(C#N)cn1` [Example 132, (2S)—N-(5-cyanopyridin-2-yl)-3-ethoxy-2-[1-[2-(trifluoromethyl)phenyl]pyrazolo[4,5-e]pyrimidin-4-yl]oxypropanamide] it was 470 nM; in that of `CCOC[C@H](Oc1ncnc2c1cnn2-c1ccccc1C(F)(F)F)C(=O)Nc1cnc(C)cn1` [Example 133, (2S)-3-ethoxy-N-(5-methylpyrazin-2-yl)-2-[1-[2-(trifluoromethyl)phenyl]pyrazolo[4,5-e]pyrimidin-4-yl]oxypropanamide], 1100 nM.

For `CCOC[C@H](Oc1ncnc2c1cnn2-c1ncccc1C(F)(F)F)C(=O)Nc1ccc(Cl)cn1` [Example 134, (2S)—N-(5-chloropyridin-2-yl)-3-ethoxy-2-[1-[3-(trifluoromethyl)pyridin-2-yl]pyrazolo[4,5-e]pyrimidin-4-yl]oxypropanamide], the EC50 was found to be 440 nM. In the case of `Cc1ccc(NC(=O)[C@H](COC(C)C)Oc2ncnc3c2cnn3-c2ccncc2C)nc1` [Example 135, (2S)—N-(5-methylpyridin-2-yl)-2-[1-(3-methylpyridin-4-yl)pyrazolo[4,5-e]pyrimidin-4-yl]oxy-3-propan-2-yloxypropanamide] it was 5900 nM; in that of `Cc1cnc(NC(=O)[C@H](COC2CCC2)Oc2ncnc3c2cnn3-c2ccncc2C)cn1` [Example 136, (2S)-3-cyclobutyloxy-N-(5-methylpyrazin-2-yl)-2-[1-(3-methylpyridin-4-yl)pyrazolo[4,5-e]pyrimidin-4-yl]oxypropanamide], 2100 nM.

Regarding `Cc1cnc(NC(=O)[C@H](COC2CCC2)Oc2ncnc3c2cnn3-c2ncccc2C(F)(F)F)cn1` [Example 137, (2S)-3-cyclobutyloxy-N-(5-methylpyrazin-2-yl)-2-[1-[3-(trifluoromethyl)pyridin-2-yl]pyrazolo[4,5-e]pyrimidin-4-yl]oxypropanamide], the half-maximal effective concentration (EC50) was 350 nM.

Regarding `Cc1cnc(NC(=O)[C@H](COC2CCC2)Oc2ncnc3c2cnn3-c2ncc(Cl)cc2C(F)(F)F)cn1` [Example 138, (2S)-2-[1-[5-chloro-3-(trifluoromethyl)pyridin-2-yl]pyrazolo[4,5-e]pyrimidin-4-yl]oxy-3-cyclobutyloxy-N-(5-methylpyrazin-2-yl)propanamide], the concentration for a half-maximal effect (EC50) was found to be 810 nM.

For the compound `CCOC[C@H](Oc1ncnc2c1cnn2-c1ncccc1Cl)C(=O)Nc1ccc(S(C)(=O)=O)cn1` [Example 139, (2S)-2-(1-(3-chloropyridin-2-yl)-1H-pyrazolo[3,4-d]pyrimidin-4-yloxy)-3-ethoxy-N-(5-(methylsulfonyl)pyridin-2-yl)propanamide], the EC50 came to 1400 nM. As for `Cc1cnc(NC(=O)[C@H](COC2CCC2)Oc2ncnc3c2cnn3-c2ccccc2S(C)(=O)=O)cn1` [Example 140, (2S)-3-cyclobutoxy-N-(5-methylpyrazin-2-yl)-2-(1-(2-(methylsulfonyl)phenyl)-1H-pyrazolo[3,4-d]pyrimidin-4-yloxy)propanamide], the figure is 1200 nM; as for `Cc1cnc(NC(=O)[C@H](COC2CCC2)Oc2ncnc3c2cnn3-c2ncccc2C)cn1` [Example 141, (2S)-3-cyclobutoxy-N-(5-methylpyrazin-2-yl)-2-(1-(3-methylpyridin-2-yl)-1H-pyrazolo[3,4-d]pyrimidin-4-yloxy)propanamide], 340 nM. In the case of `Cc1cnc(NC(=O)[C@H](COC2CCC2)Oc2ncnc3c2cnn3-c2ccccc2)cn1` [Example 142, (S)-3-cyclobutoxy-N-(5-methylpyrazin-2-yl)-2-(1-phenyl-1H-pyrazolo[3,4-d]pyrimidin-4-yloxy)propanamide] it was 2400 nM; in that of `Cc1ccc(NC(=O)[C@H](CCO)Oc2ncnc3c2cnn3-c2ncccc2Cl)nc1` [Example 143, (2S)-2-[1-(3-chloro-2-pyridyl)pyrazolo[4,5-e]pyrimidin-4-yl]oxy-4-hydroxy-N-(5-methyl-2-pyridyl)butanamide], 180 nM. As for `Cc1cnc(NC(=O)[C@H](CCO)Oc2ncnc3c2cnn3-c2ncccc2Cl)cn1` [Example 143a, (2S)-2-[1-(3-chloro-2-pyridyl)pyrazolo[4,5-e]pyrimidin-4-yl]oxy-4-hydroxy-N-(5-methylpyrazin-2-yl)butanamide], the figure is 2600 nM; as for `O=C(Nc1ccc(Cl)cn1)[C@H](CCO)Oc1ncnc2c1cnn2-c1ncccc1Cl` [Example 143b, (2S)-N-(5-chloro-2-pyridyl)-2-[1-(3-chloro-2-pyridyl)pyrazolo[4,5-e]pyrimidin-4-yl]oxy-4-hydroxy-butanamide], 260 nM. With `O=C(Nc1ccccn1)[C@H](CCO)Oc1ncnc2c1cnn2-c1ncccc1Cl` [Example 143c, (2S)-2-[1-(3-chloro-2-pyridyl)pyrazolo[4,5-e]pyrimidin-4-yl]oxy-4-hydroxy-N-(2-pyridyl)butanamide], the EC50 came to 610 nM.
